Data from PubChem BioAssay AID504539 (Broad Institute, 2011).

test system: Cell-based prion protein 5' UTR reporter, plate reader; test: prion protein 5' UTR mRNA inhibitors – cell-based, plate reader, cherry-picked samples, dose response (AID 504539)

SMILES | AC50 [nM]
COc1ccc(C(=O)Nc2ccccc2C(=O)N/N=C/c2ccc(O)c(OC)c2)cc1 | 1400
C[C@H]1O[C@@H](OC2CC[C@]3(C=O)[C@H]4CC[C@]5(C)[C@@H](C6=CC(=O)OC6)CC[C@]5(O)[C@@H]4CC[C@]3(O)C2)CC2OC(C)(C)OC21 (some centres undefined) | 123
COc1cc(C2c3[nH]c4ccccc4c3CC3COC(=O)N32)cc(OC)c1O (centres undefined) | 270
Cc1c(C(=O)OCc2ccccc2)[nH]c2c1C(=O)CC(c1ccco1)C2 (centres undefined) | 388
C[C@]12CC[C@H](O)C[C@H]1CC[C@@H]1[C@@H]2CC[C@]2(C)[C@@H](C3=CC(=O)OC3)CC[C@]12O | 235
CN(C)CCN1C(=O)c2cccc3cc([N+](=O)[O-])cc(c23)C1=O | 433
NC1=C(Cl)C(=O)c2ccc(S(N)(=O)=O)cc2C1=O | 226
Cc1ccc(C(=O)Nc2cnc3ccccc3c2)cc1 | 94
OCC1OC(n2ccc3c(NO)ncnc32)C(O)C1O (centres undefined) | 189
CC12CCC(O)CC1CCC1C2CCC2(C)C(C3=CC(=O)OC3)CCC12O (centres undefined) | 230
CC1OC(OC2C=C3CCC4C(CCC5(C)C(c6ccc(=O)oc6)CCC45O)C3(C)CC2)C(O)C(OC2OC(CO)C(O)C(O)C2O)C1O (centres undefined) | < 38
CCc1ccn2cc(-c3ccc4c(c3)OCO4)nc2c1 | 384
COc1ccc(N/C=C/C(=O)c2cc(OC)c(OC)c(OC)c2)cc1 | 2440
O=C1C(=C2SCCCS2)CC/C1=C\c1ccc(F)cc1 | 292
COc1ccc(OC)c(-c2nnc3n2N=C(c2ccc(OC)c(OC4CCOC4)c2)CS3)c1 (centres undefined) | 554
Cc1ccc(Nc2nc(-c3c(C)nc4ncccn34)cs2)cc1 | 168
O=C(CN1C(=O)c2ccccc2S1(=O)=O)c1ccc2c(c1)OCCCO2 | 39
COC(=O)Cc1[nH]n(-c2nc3ccccc3s2)c(=O)c1C(C)=Nc1ccc(C)cc1 | 401
Cc1ccc(C(=O)c2cc([N+](=O)[O-])ccc2N2CCOCC2)c(C)c1 | 2940
CC(=O)OC(C)(C)/C=C/C(=O)[C@](C)(O)[C@H]1[C@H](O)C[C@@]2(C)[C@@H]3CC=C4[C@H](C[C@H](O)C(=O)C4(C)C)[C@]3(C)C(=O)C[C@]12C | < 38
S=C(Nc1ccccc1)Nc1ccc(OCc2ccc(Cl)cc2Cl)cc1 | 355
COc1cc(OC)cc(-c2cc3nc(C)c(CCC(=O)O)c(C)n3n2)c1 | 1610

SMILES | AC50 [nM]
COc1c(C=O)c2c(c(OC)c1OC)-c1ccc(OC)c(=O)cc1C(NC(C)=O)CC2 (centres undefined) | 300
COc1ccc(-n2ncc3c(N4CCCCC4)ncnc32)cc1 | 661
CN(C)c1ccc(CCc2ccc(N)cc2)cc1 | 831
C=C1CC(Cn2cc(Br)c(=O)[nH]c2=O)(c2ccc(-c3ccccc3)cc2)OC1=O (centres undefined) | 1160
COc1cc(SC)ccc1C(=O)Nc1nc(C)cs1 | 216
O=C1NC2C(=CC(O)C(O)C2O)c2cc3c(c(O)c21)OCO3 (centres undefined) | 205
Cc1ccc(C(=O)O/N=C(\N)c2ccccn2)cc1C | 708
Clc1ccccc1/C=C/c1nc(-c2ccccn2)no1 | 540
Nc1ncnc2c(C3OC(CO)C(O)C3O)c[nH]c12 (centres undefined) | 76
Cc1c(C)c2ccc(OCC(=O)Nc3ccccn3)c(C)c2oc1=O | 64
CC1CCN(c2ccc(-c3cccc(NC(=O)C(F)(F)F)c3)nn2)CC1 | 194
O=C(CN1C(=O)c2ccccc2S1(=O)=O)c1ccc(OC(F)F)cc1 | 657
COc1cc(SC)ccc1C(=O)Nc1ccc(Cl)cn1 | 567
Cc1nc(SCC(=O)Nc2nccs2)c(C#N)c(C)c1C | 991
O=C(Nc1ccc([N+](=O)[O-])cc1)C(=O)Nc1cccc(C(=O)O)c1 | 164
CN(C)c1ccc2c(c1)OC(N)=C(C#N)C2c1cccc(F)c1 (centres undefined) | 179
COCCn1c(C)cc(C(=O)CSc2nnnn2C2CCCC2)c1C | 1140
Nc1ncnc2c(C3OC(CO)C(O)C3O)scc12 (centres undefined) | 2450
COc1ccc(C(=O)NN(C)c2nc(C(F)(F)F)nc3ccccc23)cc1 | 163
CCN(CC)c1ccc2cc(-c3nc4ccccc4[nH]3)c(=O)oc2c1 | 868
COC(=O)CCC(=O)NC(=S)Nc1sc(C)c(C)c1C(N)=O | 636
Cc1ccc(-n2[nH]c(=O)c(-c3ccccn3)c2C)cc1 | 368

SMILES | AC50 [nM]
CC1=Nc2cc(C(=O)NCc3ccco3)ccc2Sc2ccc(C)cc21 | 1670
O=C1c2cccc3cc([N+](=O)[O-])cc(c23)C(=O)N1CCN1CCCC1 | 521
Cc1cc(C(=O)CSc2nnc3ccccn23)c(C)n1-c1ccccc1 | 480
CCOc1ccccc1C1CC(=O)Nc2cc3c(cc21)OCCO3 (centres undefined) | 3820
COc1ccc2c(c1)sc1nc(-c3ccccc3)cn12 | 556
O=c1c2ccccc2cnn1CCOc1ccccc1 | 354
CC1=C(N2CC2)C(=O)C(CO)=C(N2CC2)C1=O | 154
Cc1ccc(-c2cc3c(nn2)-c2ccccc2C3=O)cc1 | 575
CC(=O)OC(C)(C)/C=C/C(=O)C(C)(O)C1[C@H](O)C[C@@]2(C)C3CC=C4C(CC[C@@H](O)C4(C)C)[C@]3(CO)C(=O)C[C@]12C (some centres undefined) | 85
O=C(NCCc1ccccc1)c1ccc2c(c1)OCCCO2 | 187
CC(=O)OC1C(=O)OCC23CCC4(C)OC4C2OC2CC(OC(=O)C=CC=CC(=O)OCCC1C)C3(C)C21CO1 (centres undefined) | < 38
Cc1c(C(=O)OCCOC(C)C)[nH]c2c1C(=O)CC(c1ccco1)C2 (centres undefined) | 450
CCn1c(C)cc(C(=O)CN2C(=O)c3ccccc3S2(=O)=O)c1C | 1260
O=C(NC1=NCCS1)C1COc2ccccc2O1 (centres undefined) | 296
Cc1ccc(C(=O)O/N=C(\N)c2ccccn2)c(C)c1 | 46
CC(C)(C)C1C/C(=C/c2ccccn2)C(=O)/C(=C/c2ccccn2)C1 (centres undefined) | 815
CCCOc1ccccc1C1CC(=O)Nc2cc3c(cc21)OCCO3 (centres undefined) | 2900
CN(C)c1ccc(/C=N/Nc2cccc(C(=O)O)c2)cc1 | 547
CC[C@@]1(O)C(=O)OCc2c1cc1n(c2=O)Cc2cc3c(NC(=O)CN)cccc3nc2-1 | 232
C/C=C/COC(=O)c1[nH]c2c(c1C)C(=O)CC(c1ccco1)C2 (centres undefined) | 660
COC(=O)C1CCC(=O)N1C(c1ccc(OC)cc1)c1cc(OC)c(OC)c(OC)c1 (centres undefined) | 676
O=C(NNC(=O)c1ccccc1O)c1ccccc1O | 234

SMILES | AC50 [nM]
CCC1=Nc2cc(C(=O)NCc3ccco3)ccc2Sc2ccc(C)cc21 | 652
O=C(O)c1ccc(N/N=C/c2ccc3nccnc3c2)cc1 | 560
Cc1nn(-c2ccccc2Cl)c(Cl)c1/C=N/Nc1nc2ccccc2s1 | < 38
CCCC[C@@H](C)C[C@@H](C)C(=O)N(C)[C@@H](CC(C)C)C(=O)N[C@H](C(=O)N(C)[C@H](C(=O)N1C[C@@H](O)C[C@H]1C(=O)N1C(=O)C=C[C@@H]1C)C(C)C)C(C)OC(C)=O (some centres undefined) | < 38
O=C(c1ccc(Br)cc1)c1cc([N+](=O)[O-])ccc1N1CCCCC1 | 628
O=C(O)c1cccc(N/N=C/c2cccs2)c1 | 349
CC(=O)c1sc2c(c1OC(=O)c1ccc(Cl)cc1Cl)c(=O)n(-c1ccccc1)c(=S)n2-c1ccccc1 | 452
COc1ccc(C(=O)Nc2ccc(C)cn2)c(OC)c1 | 280
CC1CCCN(c2ncnc3c2cnn3-c2ccc(Cl)cc2)C1 (centres undefined) | < 38
Cc1ccc2nc(-c3ccc4c(c3)OCCO4)cn2c1 | 110
COc1ccc(OC)c(-c2nnc3n2N=C(c2ccc(OC)c(OC)c2)CS3)c1 | 261
CN1CCN(c2ccc(-c3ccc4ccccc4n3)cc2)CC1 | 113
Cc1ccc(C(=O)N/N=C/c2ccc([N+](=O)[O-])s2)cc1 | 1010
CCOc1ncccc1C(=O)N1CCN(c2cccc(C)c2C)CC1 | 517
Cn1ncnc2c(=O)n(C)c(=O)nc1-2 | 135
CCCS(=O)(=O)c1cnc(C2COc3ccccc3O2)nc1N (centres undefined) | 487
CC(=O)O[C@H]1C[C@@H]2OC3C=C(C)CCC3(C)[C@@]1(C)[C@@]21CO1 (some centres undefined) | 2070
Cc1cc(/C=N/Nc2ncnc(N)c2[N+](=O)[O-])c(C)n1-c1ccccc1 | 636
COC1C(O)C(C)OC(OC2CCC3(C=O)C(CCC4C3CCC3(C)C(C5=CC(=O)OC5)CCC43O)C2)C1O (centres undefined) | < 38
O=c1oc2ccccc2cc1-c1cn(-c2ccccc2)c(=S)[nH]1 | 776
Nc1ncnc2c1ccn2[C@@H]1O[C@H](CO)[C@@H](O)[C@H]1O | 164
CCOc1ccc(NC(=O)c2ccccn2)cc1 | 345

SMILES | AC50 [nM]
COC(=O)c1cc(C(=O)N2CCN(c3cccc(Cl)c3)CC2)cc([N+](=O)[O-])c1 | 470
CCCN1C=CC(=C2C(=O)c3ccccc3C2=O)C=C1 | 169
CCC1(OC(=O)CN)C(=O)OCc2c1cc1n(c2=O)Cc2cc3ccccc3nc2-1 (centres undefined) | 987
O=C(NC1CCCCC1)c1n[nH]c2c1CCCCC2 | 759
CC(=O)OC1CC(OC2C(O)CC(OC3C(O)CC(OC4CCC5(C)C(CCC6C5CC(O)C5(C)C(C7=CC(=O)OC7)CCC65O)C4)OC3C)OC2C)OC(C)C1OC1OC(CO)C(O)C(O)C1O (centres undefined) | 92
COc1cc(C(=O)N2CCN(c3cc(Cl)ccc3Cl)CC2)cc(OC)c1OC | 1120
Cc1ccc(N2C(=O)c3cccc4c(N)ccc(c34)C2=O)c2cccnc12 | 134
O=C(CN1C(=O)c2ccccc2S1(=O)=O)c1ccc(Cl)cc1Cl | 181
CCOC(=O)COc1cccc2c(=O)n(CC(=O)NCc3ccc(F)cc3)ccc12 | 1540
N#CC1=C(N)Oc2c(ccc3ccccc23)C1c1ccsc1 (centres undefined) | 831
O=[N+]([O-])c1cccc2nc3ccccc3c(NCCCn3ccnc3[N+](=O)[O-])c12 | 76
Cc1ccc(-c2nc(-c3ccccn3)no2)cc1Cl | 351
Cc1cnc(NC(=O)c2ccc3c(c2)OCCO3)s1 | 159
CN(C(=O)OC(C)(C)C)c1ccc(-c2nc3ccccc3s2)cc1 | < 38
COc1cccc2c1C(=O)c1c(O)c3c(c(O)c1C2=O)CC(O)(C(C)=O)CC3OC1CC(N(C)C)C(O)C(C)O1 (centres undefined) | 165
CCOC(=O)c1[nH]c2c(c1C)C(=O)CC(c1ccco1)C2 (centres undefined) | 360
CCN(CC)c1ccc(/C=N/N=C(N)N)c(O)c1 | 1410
CCC(C)(C)c1ccc(Oc2ccc(N)cc2)cc1 | 173
Cc1cc(/C=C2\SC(=S)N(C)C2=O)c(C)n1-c1ccc(O)cc1 | 130
COc1ccc(C[C@H]2NC[C@H](O)[C@H]2OC(C)=O)cc1 | 378
Cc1c(C(=O)N/N=C/c2ccc(Cl)cc2)[nH]c2ccc(Cl)cc12 | 1090
